Drawing on ChEMBL document CHEMBL5291721, “A preclinical secondary pharmacology resource illuminates target-adverse drug reaction associations of marketed drugs” (Nat Commun, 2023), this text covers AC50 for ten compounds.

Targets include Mu-type opioid receptor (Homo sapiens, UniProt P35372); D(3) dopamine receptor (Homo sapiens, UniProt P35462); Melanocortin receptor 4 (Homo sapiens, UniProt P32245); Melanocortin receptor 3 (Homo sapiens, UniProt P41968); Histamine H1 receptor (Homo sapiens, UniProt P35367).
In another assay the target is D(1A) dopamine receptor (Homo sapiens, UniProt P21728). It is filed as functional, cell-based.
Sequence of D(1A) dopamine receptor (P21728 whole entry): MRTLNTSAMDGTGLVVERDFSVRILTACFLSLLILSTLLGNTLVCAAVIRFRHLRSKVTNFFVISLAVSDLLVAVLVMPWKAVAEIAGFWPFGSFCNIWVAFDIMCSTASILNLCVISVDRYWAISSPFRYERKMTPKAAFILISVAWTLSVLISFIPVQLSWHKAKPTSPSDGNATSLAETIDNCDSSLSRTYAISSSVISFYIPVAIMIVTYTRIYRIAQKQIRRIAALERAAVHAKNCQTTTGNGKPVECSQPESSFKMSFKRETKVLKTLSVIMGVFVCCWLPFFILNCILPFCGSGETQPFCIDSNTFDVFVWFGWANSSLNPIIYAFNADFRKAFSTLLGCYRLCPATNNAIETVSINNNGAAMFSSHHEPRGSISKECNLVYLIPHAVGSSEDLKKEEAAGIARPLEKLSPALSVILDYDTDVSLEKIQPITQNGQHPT
For assay [1], the target named is T1, Cannabinoid receptor 1 (Homo sapiens, UniProt P21554).
In assay [2] the target is 3',5'-cyclic-AMP phosphodiesterase 4D (Homo sapiens, UniProt Q08499). It is filed as functional.
Sequence of 3',5'-cyclic-AMP phosphodiesterase 4D (Q08499 whole entry): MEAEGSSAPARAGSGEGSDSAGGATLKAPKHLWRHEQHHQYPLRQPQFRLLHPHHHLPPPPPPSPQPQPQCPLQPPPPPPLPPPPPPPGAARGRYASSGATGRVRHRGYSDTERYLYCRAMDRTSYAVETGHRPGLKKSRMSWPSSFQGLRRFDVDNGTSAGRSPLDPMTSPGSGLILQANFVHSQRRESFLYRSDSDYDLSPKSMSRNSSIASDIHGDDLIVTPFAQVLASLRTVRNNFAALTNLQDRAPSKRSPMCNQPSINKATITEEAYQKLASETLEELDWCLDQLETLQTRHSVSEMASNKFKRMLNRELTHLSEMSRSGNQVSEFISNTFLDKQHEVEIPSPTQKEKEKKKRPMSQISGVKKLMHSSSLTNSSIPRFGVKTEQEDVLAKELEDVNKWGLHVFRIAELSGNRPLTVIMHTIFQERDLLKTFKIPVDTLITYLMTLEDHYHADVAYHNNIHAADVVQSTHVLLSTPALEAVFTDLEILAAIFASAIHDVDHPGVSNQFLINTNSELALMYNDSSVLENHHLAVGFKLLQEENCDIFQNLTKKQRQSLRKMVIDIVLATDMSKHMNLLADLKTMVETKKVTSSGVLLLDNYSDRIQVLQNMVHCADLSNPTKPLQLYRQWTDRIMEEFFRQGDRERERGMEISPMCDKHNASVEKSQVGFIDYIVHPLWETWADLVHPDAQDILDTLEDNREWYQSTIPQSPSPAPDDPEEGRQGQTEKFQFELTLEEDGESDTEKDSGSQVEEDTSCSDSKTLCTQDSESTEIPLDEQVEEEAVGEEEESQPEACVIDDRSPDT
Assay [3] concerns the target T2, Muscarinic acetylcholine receptor M2 (Homo sapiens, UniProt P08172).
T2 sequence (P08172 whole entry): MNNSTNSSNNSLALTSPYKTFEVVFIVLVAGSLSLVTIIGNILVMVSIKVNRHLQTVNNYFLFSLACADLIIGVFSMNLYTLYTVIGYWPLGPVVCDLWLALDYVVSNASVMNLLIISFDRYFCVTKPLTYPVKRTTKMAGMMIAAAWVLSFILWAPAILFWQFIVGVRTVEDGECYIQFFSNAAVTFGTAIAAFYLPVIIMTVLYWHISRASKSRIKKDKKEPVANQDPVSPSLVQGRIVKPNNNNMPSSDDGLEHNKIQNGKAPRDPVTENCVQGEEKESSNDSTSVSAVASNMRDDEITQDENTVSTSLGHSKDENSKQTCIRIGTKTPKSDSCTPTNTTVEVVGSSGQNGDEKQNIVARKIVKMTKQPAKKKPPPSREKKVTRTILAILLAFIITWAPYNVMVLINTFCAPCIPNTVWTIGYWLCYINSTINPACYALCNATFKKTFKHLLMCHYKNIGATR
In kind it is functional, cell-based.

The next assay deals with T3, Glucocorticoid receptor (Homo sapiens, UniProt P04150).
T3 sequence (P04150 whole entry): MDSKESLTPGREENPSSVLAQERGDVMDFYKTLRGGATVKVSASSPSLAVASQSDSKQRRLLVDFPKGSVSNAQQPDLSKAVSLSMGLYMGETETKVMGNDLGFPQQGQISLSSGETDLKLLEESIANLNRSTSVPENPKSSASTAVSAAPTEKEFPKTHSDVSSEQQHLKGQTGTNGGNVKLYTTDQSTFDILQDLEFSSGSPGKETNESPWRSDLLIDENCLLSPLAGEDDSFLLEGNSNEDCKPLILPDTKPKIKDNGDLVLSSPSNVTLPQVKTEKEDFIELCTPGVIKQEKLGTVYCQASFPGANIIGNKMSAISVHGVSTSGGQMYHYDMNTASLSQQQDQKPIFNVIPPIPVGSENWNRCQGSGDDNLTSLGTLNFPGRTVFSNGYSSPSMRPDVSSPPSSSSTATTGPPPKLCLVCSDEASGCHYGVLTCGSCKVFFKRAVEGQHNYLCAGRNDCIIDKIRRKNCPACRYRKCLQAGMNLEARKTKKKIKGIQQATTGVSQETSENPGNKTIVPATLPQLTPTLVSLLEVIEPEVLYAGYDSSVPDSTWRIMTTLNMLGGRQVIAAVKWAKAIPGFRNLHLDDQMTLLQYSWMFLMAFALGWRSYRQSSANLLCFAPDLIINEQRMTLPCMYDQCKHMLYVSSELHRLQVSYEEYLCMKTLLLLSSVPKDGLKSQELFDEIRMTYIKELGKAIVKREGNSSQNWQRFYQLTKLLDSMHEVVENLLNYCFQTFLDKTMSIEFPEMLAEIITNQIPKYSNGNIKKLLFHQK

In assay [4] the target is Voltage-gated inwardly rectifying potassium channel KCNH2 (Homo sapiens, UniProt Q12809). In kind it is functional. The following applies: read-out: AC50.
Sequence of Voltage-gated inwardly rectifying potassium channel KCNH2 (Q12809 whole entry): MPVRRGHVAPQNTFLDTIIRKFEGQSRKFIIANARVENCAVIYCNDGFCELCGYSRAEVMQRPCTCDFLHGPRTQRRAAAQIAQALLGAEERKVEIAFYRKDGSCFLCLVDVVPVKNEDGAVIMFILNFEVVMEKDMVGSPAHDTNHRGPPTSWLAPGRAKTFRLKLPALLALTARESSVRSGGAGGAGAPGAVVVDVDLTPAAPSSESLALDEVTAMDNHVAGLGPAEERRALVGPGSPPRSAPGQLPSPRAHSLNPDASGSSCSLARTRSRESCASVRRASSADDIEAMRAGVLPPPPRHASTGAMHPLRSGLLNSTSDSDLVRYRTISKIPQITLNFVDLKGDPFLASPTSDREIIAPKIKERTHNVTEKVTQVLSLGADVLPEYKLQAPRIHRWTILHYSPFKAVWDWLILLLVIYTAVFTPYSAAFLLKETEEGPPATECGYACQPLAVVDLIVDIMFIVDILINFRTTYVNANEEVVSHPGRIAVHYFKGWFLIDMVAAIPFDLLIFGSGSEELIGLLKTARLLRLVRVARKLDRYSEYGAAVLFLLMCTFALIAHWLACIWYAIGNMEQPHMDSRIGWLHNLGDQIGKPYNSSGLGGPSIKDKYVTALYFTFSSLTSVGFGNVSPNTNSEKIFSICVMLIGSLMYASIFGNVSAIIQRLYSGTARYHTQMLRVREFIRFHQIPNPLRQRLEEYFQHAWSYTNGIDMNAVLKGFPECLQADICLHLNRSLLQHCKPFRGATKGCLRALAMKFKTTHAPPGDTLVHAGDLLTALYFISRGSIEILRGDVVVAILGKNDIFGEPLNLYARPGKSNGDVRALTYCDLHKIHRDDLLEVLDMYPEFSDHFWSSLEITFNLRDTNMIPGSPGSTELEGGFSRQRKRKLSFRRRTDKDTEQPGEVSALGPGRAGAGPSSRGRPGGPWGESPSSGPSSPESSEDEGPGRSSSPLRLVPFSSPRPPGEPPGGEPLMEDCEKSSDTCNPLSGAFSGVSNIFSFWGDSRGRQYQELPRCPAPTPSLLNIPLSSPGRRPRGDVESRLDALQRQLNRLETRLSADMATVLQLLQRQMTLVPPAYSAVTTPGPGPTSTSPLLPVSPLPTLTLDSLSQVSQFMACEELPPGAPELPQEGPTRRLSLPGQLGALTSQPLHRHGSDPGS
Assay [5] deals with T1, Cannabinoid receptor 1. In kind it is functional, cell-based.
For assay [6], the target named is T4, Type-1 angiotensin II receptor (Homo sapiens, UniProt P30556).
T4 sequence (P30556 whole entry): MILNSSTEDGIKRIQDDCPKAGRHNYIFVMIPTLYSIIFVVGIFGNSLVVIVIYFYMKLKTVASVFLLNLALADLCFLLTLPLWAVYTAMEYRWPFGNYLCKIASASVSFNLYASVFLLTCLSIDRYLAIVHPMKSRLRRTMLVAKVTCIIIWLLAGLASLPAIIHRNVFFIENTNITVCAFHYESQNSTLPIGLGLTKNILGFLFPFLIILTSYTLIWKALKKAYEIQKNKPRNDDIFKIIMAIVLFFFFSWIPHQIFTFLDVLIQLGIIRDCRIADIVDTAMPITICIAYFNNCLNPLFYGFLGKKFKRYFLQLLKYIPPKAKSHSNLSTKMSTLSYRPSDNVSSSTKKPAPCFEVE

Assay [7] has as its target 5-hydroxytryptamine receptor 2A (Homo sapiens, UniProt P28223). It is filed as functional, cell-based.
The next assay concerns the target T5, Endothelin-1 receptor (Homo sapiens, UniProt P25101).
T5 sequence (P25101 whole entry): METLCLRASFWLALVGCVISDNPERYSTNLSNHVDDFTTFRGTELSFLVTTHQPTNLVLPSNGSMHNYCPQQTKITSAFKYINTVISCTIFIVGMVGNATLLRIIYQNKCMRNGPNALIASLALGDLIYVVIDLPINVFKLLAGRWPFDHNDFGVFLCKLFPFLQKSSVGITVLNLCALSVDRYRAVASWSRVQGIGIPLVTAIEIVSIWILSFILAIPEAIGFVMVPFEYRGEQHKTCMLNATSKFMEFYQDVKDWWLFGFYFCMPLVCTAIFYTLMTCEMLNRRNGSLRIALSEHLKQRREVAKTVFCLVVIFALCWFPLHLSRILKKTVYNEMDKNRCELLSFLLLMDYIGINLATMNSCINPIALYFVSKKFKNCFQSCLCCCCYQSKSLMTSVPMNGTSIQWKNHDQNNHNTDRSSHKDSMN

Some results are limits rather than exact numbers.

Usually AC50 stands for the midpoint of the concentration-response curve, whichever way the signal moves.
Also: assay procedure not described here.

Sequence of D(3) dopamine receptor (P35462 whole entry): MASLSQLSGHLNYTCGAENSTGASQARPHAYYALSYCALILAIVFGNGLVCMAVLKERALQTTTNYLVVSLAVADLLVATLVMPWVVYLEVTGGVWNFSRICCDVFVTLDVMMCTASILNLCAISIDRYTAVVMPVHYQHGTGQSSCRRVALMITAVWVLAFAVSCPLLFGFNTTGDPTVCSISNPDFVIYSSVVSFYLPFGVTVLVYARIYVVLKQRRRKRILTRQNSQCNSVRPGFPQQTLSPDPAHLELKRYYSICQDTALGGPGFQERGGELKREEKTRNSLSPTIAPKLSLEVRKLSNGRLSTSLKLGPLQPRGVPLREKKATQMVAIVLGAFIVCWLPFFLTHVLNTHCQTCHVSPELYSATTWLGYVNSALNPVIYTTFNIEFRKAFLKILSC
Sequence of Histamine H1 receptor (P35367 whole entry): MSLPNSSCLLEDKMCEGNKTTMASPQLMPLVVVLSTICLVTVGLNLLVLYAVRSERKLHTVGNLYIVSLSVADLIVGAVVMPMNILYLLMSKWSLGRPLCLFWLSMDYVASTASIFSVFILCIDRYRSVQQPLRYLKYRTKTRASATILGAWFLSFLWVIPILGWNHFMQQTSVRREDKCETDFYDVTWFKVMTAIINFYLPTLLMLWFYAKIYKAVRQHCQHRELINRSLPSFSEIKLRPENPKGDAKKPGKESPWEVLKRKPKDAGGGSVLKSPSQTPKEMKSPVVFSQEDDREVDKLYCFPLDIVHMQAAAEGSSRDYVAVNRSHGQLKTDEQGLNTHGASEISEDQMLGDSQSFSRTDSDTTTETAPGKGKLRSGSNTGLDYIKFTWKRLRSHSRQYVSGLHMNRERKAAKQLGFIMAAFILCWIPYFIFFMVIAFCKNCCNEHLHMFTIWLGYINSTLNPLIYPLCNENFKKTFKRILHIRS
Sequence of Mu-type opioid receptor (P35372 whole entry): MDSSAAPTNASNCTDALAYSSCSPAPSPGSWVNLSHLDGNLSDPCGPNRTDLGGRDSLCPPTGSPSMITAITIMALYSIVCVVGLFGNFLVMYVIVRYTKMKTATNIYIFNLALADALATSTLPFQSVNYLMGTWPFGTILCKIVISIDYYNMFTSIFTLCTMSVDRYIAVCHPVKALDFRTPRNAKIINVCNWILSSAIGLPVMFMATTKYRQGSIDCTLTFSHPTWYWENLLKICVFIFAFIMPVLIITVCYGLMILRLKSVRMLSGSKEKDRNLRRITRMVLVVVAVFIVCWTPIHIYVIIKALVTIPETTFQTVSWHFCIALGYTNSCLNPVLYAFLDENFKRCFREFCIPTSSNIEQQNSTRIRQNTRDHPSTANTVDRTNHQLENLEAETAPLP
Sequence of 5-hydroxytryptamine receptor 2A (P28223 whole entry): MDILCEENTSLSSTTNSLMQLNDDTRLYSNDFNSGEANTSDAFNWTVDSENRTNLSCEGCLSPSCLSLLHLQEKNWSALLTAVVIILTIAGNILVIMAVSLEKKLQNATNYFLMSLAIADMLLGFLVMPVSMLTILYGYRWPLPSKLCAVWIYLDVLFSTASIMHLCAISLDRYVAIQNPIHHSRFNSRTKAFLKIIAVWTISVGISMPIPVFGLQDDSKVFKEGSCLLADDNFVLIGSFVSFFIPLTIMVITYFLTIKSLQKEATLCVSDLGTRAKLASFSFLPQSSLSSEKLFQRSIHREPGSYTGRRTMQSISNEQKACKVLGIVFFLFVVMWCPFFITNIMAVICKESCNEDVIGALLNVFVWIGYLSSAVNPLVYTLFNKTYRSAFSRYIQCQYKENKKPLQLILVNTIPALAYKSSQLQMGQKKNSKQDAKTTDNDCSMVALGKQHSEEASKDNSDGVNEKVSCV
Sequence of Melanocortin receptor 3 (P41968 whole entry): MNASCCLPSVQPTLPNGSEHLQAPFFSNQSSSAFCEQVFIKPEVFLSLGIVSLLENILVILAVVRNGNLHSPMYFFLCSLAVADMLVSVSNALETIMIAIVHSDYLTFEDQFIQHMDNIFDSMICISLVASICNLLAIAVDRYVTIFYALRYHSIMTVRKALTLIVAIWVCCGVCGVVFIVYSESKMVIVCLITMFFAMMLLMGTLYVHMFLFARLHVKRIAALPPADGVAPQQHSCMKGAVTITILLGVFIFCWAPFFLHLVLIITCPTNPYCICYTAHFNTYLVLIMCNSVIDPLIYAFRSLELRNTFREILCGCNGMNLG
Sequence of Melanocortin receptor 4 (P32245 whole entry): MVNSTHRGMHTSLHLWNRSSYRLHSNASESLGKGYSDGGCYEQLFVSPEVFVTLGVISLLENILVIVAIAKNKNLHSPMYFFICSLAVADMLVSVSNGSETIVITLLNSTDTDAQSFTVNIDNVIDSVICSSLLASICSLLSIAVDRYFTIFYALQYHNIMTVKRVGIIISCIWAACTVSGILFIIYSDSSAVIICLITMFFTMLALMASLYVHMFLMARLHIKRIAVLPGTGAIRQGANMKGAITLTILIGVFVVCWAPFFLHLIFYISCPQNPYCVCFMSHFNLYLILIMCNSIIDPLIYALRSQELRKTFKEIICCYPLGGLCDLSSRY

Turning to `CN1C(=O)CC(c2ccccc2)C1=O` (stereo not drawn) [PHENSUXIMIDE], the AC50 on Mu-type opioid receptor is more than 30 µM; at D(3) dopamine receptor it was more than 30 µM; at D(1A) dopamine receptor, more than 10 µM; on Cannabinoid receptor 1 [1], more than 10 µM; on Melanocortin receptor 4 it was more than 10 µM; in [2] it was more than 30 µM. Further, the AC50 was more than 10 µM on Melanocortin receptor 3; more than 10 µM in assay [3]; more than 10 µM on Glucocorticoid receptor; more than 30 µM in assay [4]; more than 30 µM at Cannabinoid receptor 1 [5]; more than 10 µM in assay [6]. Besides, the AC50 (in [7]; at Histamine H1 receptor) was more than 10 µM in each case.
As for `CCC1(C2=CCCCCC2)C(=O)NC(=O)NC1=O` [HEPTABARBITAL], the AC50 at Mu-type opioid receptor was more than 30 µM; at D(3) dopamine receptor it was more than 30 µM; at D(1A) dopamine receptor, more than 10 µM; at Cannabinoid receptor 1 [1], more than 10 µM; at Melanocortin receptor 4, more than 10 µM; in assay [2], more than 30 µM. Also, the AC50 is more than 10 µM on Melanocortin receptor 3; more than 10 µM in assay [3]; more than 10 µM on Glucocorticoid receptor; more than 30 µM in assay [4]; more than 30 µM at Cannabinoid receptor 1 [5]; more than 10 µM in assay [6]. The AC50 (in assay [7]; on Histamine H1 receptor) was more than 10 µM each time.
As to `CC(C)[N+](C)(CCC(C(N)=O)(c1ccccc1)c1ccccc1)C(C)C` [ISOPROPAMIDE], the AC50 was more than 30 µM on Mu-type opioid receptor; more than 30 µM on D(3) dopamine receptor; more than 10 µM on D(1A) dopamine receptor; more than 10 µM at Cannabinoid receptor 1 [1]; more than 10 µM at Melanocortin receptor 4; more than 30 µM in assay [2]. The AC50 at Melanocortin receptor 3 is more than 10 µM; in assay [3], 0.01 µM; on Glucocorticoid receptor it was more than 10 µM; in [4], 3.3 µM; in [6], more than 10 µM; in assay [7], more than 10 µM. Moreover, the AC50 at Histamine H1 receptor is more than 10 µM.
Regarding `CN1CCC2=C(C1)C(c1ccccc1)c1ccccc12` (stereo not drawn) [PHENINDAMINE], the AC50 on Mu-type opioid receptor was more than 30 µM; on D(3) dopamine receptor, more than 30 µM; on D(1A) dopamine receptor, more than 10 µM; at Cannabinoid receptor 1 [1], more than 10 µM; on Melanocortin receptor 4, more than 10 µM; in assay [2], 8.7 µM. Besides, the AC50 on Melanocortin receptor 3 is more than 10 µM; in assay [3], more than 10 µM; on Glucocorticoid receptor it was more than 30 µM; in assay [4], more than 30 µM; in [6], more than 10 µM; in assay [7] it was more than 10 µM. Half-maximal activity at Histamine H1 receptor (AC50) was put at 8.1 µM.
`C#CC1(OC(N)=O)CCCCC1` [ETHINAMATE]: the AC50 is more than 30 µM on Mu-type opioid receptor; more than 30 µM on D(3) dopamine receptor; more than 10 µM at D(1A) dopamine receptor; more than 10 µM at Cannabinoid receptor 1 [1]; more than 10 µM on Melanocortin receptor 4; more than 30 µM in [2]. For the same compound, the AC50 on Melanocortin receptor 3 is more than 10 µM; in [3] it was more than 10 µM; at Glucocorticoid receptor, more than 10 µM; in [4], more than 30 µM; in [6], more than 30 µM; in [7] it was more than 10 µM. The same compound came in with an AC50 on Histamine H1 receptor of more than 10 µM.
Consider `CC1=CC(=O)c2ccccc2C1=O` [MENADIONE], for which the AC50 on Mu-type opioid receptor was more than 30 µM; at D(3) dopamine receptor, more than 30 µM; on D(1A) dopamine receptor, more than 10 µM; on Cannabinoid receptor 1 [1], more than 10 µM; on Melanocortin receptor 4, more than 10 µM; in assay [2], more than 30 µM. In addition, the AC50 at Melanocortin receptor 3 was more than 10 µM; in assay [3], more than 10 µM; on Glucocorticoid receptor, more than 30 µM; in [4] it was more than 30 µM; in assay [6], more than 10 µM; in assay [7], more than 10 µM. This compound also displayed an AC50 at Histamine H1 receptor of more than 30 µM.
For the compound `CC(=O)OCC(=O)[C@@]12OC3(CCCC3)O[C@@H]1C[C@H]1[C@@H]3CCC4=CC(=O)C=C[C@]4(C)[C@@]3(F)[C@@H](O)C[C@@]12C` [AMCINONIDE], the AC50 at Mu-type opioid receptor is more than 30 µM; on D(3) dopamine receptor, more than 30 µM; at D(1A) dopamine receptor it was more than 10 µM; at Cannabinoid receptor 1 [1], 4.25 µM; on Melanocortin receptor 4 it was more than 10 µM; in assay [2] it was more than 30 µM. Further, the AC50 at Melanocortin receptor 3 is more than 10 µM; in [3], more than 10 µM; on Glucocorticoid receptor it was 0.016 µM; in [4], 17.3 µM; in assay [6] it was more than 10 µM; in assay [7], more than 10 µM. Besides, the AC50 at Histamine H1 receptor is more than 10 µM.
For `COC(=O)C1=C(C)NC(C)=C(C(=O)OC(C)C)C1c1cccc2nonc12` (stereo not drawn) [ISRADIPINE], the AC50 on Mu-type opioid receptor is more than 30 µM; at D(3) dopamine receptor, more than 30 µM; on D(1A) dopamine receptor, more than 30 µM; at Cannabinoid receptor 1 [1] it was more than 10 µM; at Melanocortin receptor 4 it was more than 30 µM; in assay [2], 9 µM. For the same compound, the AC50 at Melanocortin receptor 3 is more than 30 µM; in assay [3], more than 10 µM; at Glucocorticoid receptor, 15.1 µM; in [4], more than 30 µM; in assay [6] it was more than 10 µM; in [7], more than 10 µM. The AC50 on Histamine H1 receptor was more than 30 µM.
As to `CCCCOc1cc(C(=O)NCCN(CC)CC)c2ccccc2n1` [DIBUCAINE], the AC50 on Mu-type opioid receptor was more than 30 µM; at D(3) dopamine receptor, more than 30 µM; at D(1A) dopamine receptor, more than 10 µM; at Cannabinoid receptor 1 [1] it was more than 10 µM; at Melanocortin receptor 4, more than 30 µM; in assay [2], more than 30 µM. Also, the concentration at half-maximal activity (AC50) on Melanocortin receptor 3 was more than 30 µM; in [3], more than 10 µM; on Glucocorticoid receptor, more than 10 µM; in [4] it was 1.42 µM; on Cannabinoid receptor 1 [5] it was more than 30 µM; in assay [6] it was more than 10 µM. In addition, the AC50 (in assay [7]; on Histamine H1 receptor) was more than 10 µM each time.
Consider `O=C(O)CCCc1ccccc1` [PHENYLBUTANOIC ACID], for which the AC50 was more than 10 µM on Mu-type opioid receptor; more than 30 µM at D(3) dopamine receptor; more than 30 µM at Cannabinoid receptor 1 [1]; more than 10 µM on Melanocortin receptor 4; more than 30 µM in [2]; more than 10 µM at Melanocortin receptor 3. The concentration at half-maximal activity (AC50) in assay [3] is more than 30 µM; on Glucocorticoid receptor, more than 30 µM; on Endothelin-1 receptor, more than 30 µM; in assay [4] it was more than 30 µM; in [6], more than 10 µM; in assay [7], more than 30 µM. The compound further registered an AC50 at Histamine H1 receptor of more than 30 µM.
